By EC50 is commonly meant the concentration needed to bring the measured effect to its halfway point.

Emax and EC50 data for 24 compounds are collected here from US9376420B2 (YUHAN CORPORATION, priority 2012, dated 2016).

In this test the target is T1, human LXRβ (Homo sapiens, UniProt P55055).
T1 construct: expressed in transfected cells; host or cells: HEK293 cells (ATCC CRL-1573), transient transfection with pFA-hLXRβ/GAL4 and pUAS
T1 sequence (P55055 222-460 limits assumed): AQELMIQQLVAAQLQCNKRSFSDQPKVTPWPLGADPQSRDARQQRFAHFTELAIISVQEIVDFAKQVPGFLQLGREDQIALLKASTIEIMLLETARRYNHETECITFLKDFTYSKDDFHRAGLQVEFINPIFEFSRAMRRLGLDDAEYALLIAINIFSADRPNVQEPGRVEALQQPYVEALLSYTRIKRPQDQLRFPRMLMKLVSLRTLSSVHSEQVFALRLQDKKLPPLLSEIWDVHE
In words: Assay for Transcriptional Activity of LXRβ (GAL4-hLXRβ LBD luciferase reporter, transient transfection). It is filed as cell-based. The following applies: HEK293 cells transfected with pFA-hLXRβ/GAL4 and pUAS, 24 hours; for Emax: fold value in comparison with the control (DMSO-treated group); for EC50: increase of transcriptional activity of LXRβ, average of three independent tests. An outline of the steps:
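HEK293 cells transiently co-transfected with GAL4-hLXRβ LBD and 5×GAL4-UAS luciferase reporter, treated 24 h at 37 °C with compounds over 9 points (0.01–50 μM, half-log). Luminescence read after lysis; EC50 from four-parameter fit, mean of three independent tests, with a known LXR agonist as positive control.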
Background: A reporter such as luciferase makes a cellular process visible.

`OC(C1=NN(c2ccccc2Cl)C(c2ccc(-c3cncnc3)cc2)C1)(C(F)(F)F)C(F)(F)F` (stereo not drawn) [Example 258, 1-(2-chloro-phenyl)-5-(4-pyrimidin-5-yl-phenyl)-3-[di-(trifluoromethyl)-hydroxy-methyl]-4,5-dihydro-1H-pyrazole]: the Emax is recorded as 62 fold and a half-maximal effect (EC50) was put at 302 nM.

Compound `OC(C1=NN(c2ccccc2Cl)C(c2ccc(-c3cnc4ccccc4c3)cc2)C1)(C(F)(F)F)C(F)(F)F` (stereo not drawn) [Example 259, 1-(2-chloro-phenyl)-5-(4-quinolin-3-yl-phenyl)-3-[di-(trifluoromethyl)-hydroxy-methyl]-4,5-dihydro-1H-pyrazole] came in with an Emax of 57 fold and a concentration giving a half-maximal response (EC50) of 519 nM.

As to `COc1ccc(-c2ccc(C3CC(C(O)(C(F)(F)F)C(F)(F)F)=NN3c3ccccc3Cl)cc2)cn1` (stereo not drawn) [Example 260, 1-(2-chloro-phenyl)-5-[4-(6-methoxy-pyridin-3-yl)-phenyl]-3-[di-(trifluoromethyl)-hydroxy-methyl]-4,5-dihydro-1H-pyrazole], the Emax turned out to be 47 fold and a half-maximal effect (EC50) was put at 1870 nM.

`OC(C1=NN(c2ccccc2Cl)C(c2ccc(-c3cccnc3F)cc2)C1)(C(F)(F)F)C(F)(F)F` (stereo not drawn) [Example 261, 1-(2-chloro-phenyl)-5-[4-(2-fluoro-pyridin-3-yl)-phenyl]-3-[di-(trifluoromethyl)-hydroxy-methyl]-4,5-dihydro-1H-pyrazole] had an Emax of 54 fold and an EC50 of 699 nM.

For `OC(C1=NN(c2ccccc2Cl)C(c2ccc(-c3cc4ccccc4o3)cc2)C1)(C(F)(F)F)C(F)(F)F` (stereo not drawn) [Example 262, 5-(4-benzofuran-2-yl-phenyl)-1-(2-chloro-phenyl)-3-[di-(trifluoromethyl)-hydroxy-methyl]-4,5-dihydro-1H-pyrazole], the Emax came out at 92 fold and the response was half-maximal at 6860 nM (EC50).

`OC(C1=NN(c2ccccc2Cl)C(c2ccc(-c3cc4ccccc4s3)cc2)C1)(C(F)(F)F)C(F)(F)F` (stereo not drawn) [Example 263, 5-(4-benzo[b]thiophen-2-yl-phenyl)-1-(2-chloro-phenyl)-3-[di-(trifluoromethyl)-hydroxy-methyl]-4,5-dihydro-1H-pyrazole] registered an Emax of 72 fold and a concentration for a half-maximal effect (EC50) of 1270 nM.

`Cc1ccc(-c2ccc(C3CC(C(O)(C(F)(F)F)C(F)(F)F)=NN3c3ccccc3Cl)cc2)c(F)c1` (stereo not drawn) [Example 265, 1-(2-chloro-phenyl)-5-(2′-fluoro-4′-methyl-biphenyl-4-yl)-3-[di-(trifluoromethyl)-hydroxy-methyl]-4,5-dihydro-1H-pyrazole] returned an Emax of 97 fold and a half-maximal effective concentration (EC50) of 239 nM.

`CSc1ccc(-c2ccc(C3CC(C(O)(C(F)(F)F)C(F)(F)F)=NN3c3ccccc3Cl)cc2)cn1` (stereo not drawn) [Example 266, 1-(2-chloro-phenyl)-5-[4-(6-methylsulfanyl-pyridin-3-yl)-phenyl]-3-[di-(trifluoromethyl)-hydroxy-methyl]-4,5-dihydro-1H-pyrazole] came in with an Emax of 80 fold and an EC50 of 1390 nM.

With `N#Cc1ccc(-c2ccc(C3CC(C(O)(C(F)(F)F)C(F)(F)F)=NN3c3ccccc3Cl)cc2)cn1` (stereo not drawn) [Example 267, 1-(2-chloro-phenyl)-5-[4-(6-cyano-pyridin-3-yl)-phenyl]-3-[di-(trifluoromethyl)-hydroxy-methyl]-4,5-dihydro-1H-pyrazole], the Emax amounted to 59 fold and the midpoint of the response, the EC50, lay at 442 nM.

`OC(C1=NN(c2ccccc2Cl)C(c2ccc(-c3ccc(F)nc3)cc2)C1)(C(F)(F)F)C(F)(F)F` (stereo not drawn) [Example 268, 1-(2-chloro-phenyl)-5-[4-(6-fluoro-pyridin-3-yl)-phenyl]-3-[di-(trifluoromethyl)-hydroxy-methyl]-4,5-dihydro-1H-pyrazole]: the Emax is given as 88 fold and the EC50 came to 452 nM.

The compound `CCOc1ccc(-c2ccc(C3CC(C(O)(C(F)(F)F)C(F)(F)F)=NN3c3ccccc3Cl)cc2)cn1` (stereo not drawn) [Example 269, 1-(2-chloro-phenyl)-5-[4-(6-ethoxy-pyridin-3-yl)-phenyl]-3-[di-(trifluoromethyl)-hydroxy-methyl]-4,5-dihydro-1H-pyrazole] gave an Emax of 44 fold and an EC50 of 7930 nM.

Turning to `COc1cc(C)c(-c2ccc(C3CC(C(O)(C(F)(F)F)C(F)(F)F)=NN3c3ccccc3Cl)cc2)cn1` (stereo not drawn) [Example 270, 1-(2-chloro-phenyl)-5-[4-(6-methoxy-4-methyl-pyridin-3-yl)-phenyl]-3-[di-(trifluoromethyl)-hydroxy-methyl]-4,5-dihydro-1H-pyrazole], the Emax is listed as 48 fold and a half-maximal response (EC50) required 437 nM.

The compound `Cc1ccncc1-c1ccc(C2CC(C(O)(C(F)(F)F)C(F)(F)F)=NN2c2ccccc2Cl)cc1` (stereo not drawn) [Example 271, 1-(2-chloro-phenyl)-5-[4-(4-methyl-pyridin-3-yl)-phenyl]-3-[di-(trifluoromethyl)-hydroxy-methyl]-4,5-dihydro-1H-pyrazole] registered an Emax of 45 fold and an EC50 of 547 nM.

Turning to `OC(C1=NN(c2ccccc2Cl)C(c2ccc(-c3ccc(C(F)(F)F)nc3)cc2)C1)(C(F)(F)F)C(F)(F)F` (stereo not drawn) [Example 272, 1-(2-chloro-phenyl)-5-[4-(6-trifluoromethyl-pyridin-3-yl)-phenyl]-3-[di-(trifluoromethyl)-hydroxy-methyl]-4,5-dihydro-1H-pyrazole], the Emax is reported as 24 fold and the EC50 came out at 2250 nM.

For the compound `COC(=O)c1cncc(-c2ccc(C3CC(C(O)(C(F)(F)F)C(F)(F)F)=NN3c3ccccc3Cl)cc2)c1` (stereo not drawn) [Example 273, 1-(2-chloro-phenyl)-5-[4-(5-methoxycarbonyl-pyridin-3-yl)-phenyl]-3-[di-(trifluoromethyl)-hydroxy-methyl]-4,5-dihydro-1H-pyrazole], the Emax amounted to 45 fold and the EC50 was 1150 nM.

In turn, `COc1ncc(-c2ccc(C3CC(C(O)(C(F)(F)F)C(F)(F)F)=NN3c3ccccc3Cl)cc2)cc1C=O` (stereo not drawn) [Example 274, 1-(2-chloro-phenyl)-5-[4-(5-formyl-6-methoxy-pyridin-3-yl)-phenyl]-3-[di-(trifluoromethyl)-hydroxy-methyl]-4,5-dihydro-1H-pyrazole] had an Emax of 55 fold and an EC50 of 1010 nM.

`Cc1cccc(-c2ccc(C3CC(C(O)(C(F)(F)F)C(F)(F)F)=NN3c3ccccc3Cl)cc2)n1` (stereo not drawn) [Example 276, 1-(2-chloro-phenyl)-5-[4-(6-methyl-pyridin-2-yl)-phenyl]-3-[di-(trifluoromethyl)-hydroxy-methyl]-4,5-dihydro-1H-pyrazole] registered an Emax of 87 fold and an EC50 of 1240 nM.

In turn, `OC(C1=NN(c2ccccc2Cl)C(c2ccc(-c3cccnc3)cc2)C1)(C(F)(F)F)C(F)(F)F` (stereo not drawn) [Example 277, 1-(2-chloro-phenyl)-5-[4-(pyridin-3-yl)-phenyl]-3-[di-(trifluoromethyl)-hydroxy-methyl]-4,5-dihydro-1H-pyrazole] registered an Emax of 65 fold and a concentration for a half-maximal effect (EC50) of 364 nM.

On to `N#Cc1cncc(-c2ccc(C3CC(C(O)(C(F)(F)F)C(F)(F)F)=NN3c3ccccc3Cl)cc2)c1` (stereo not drawn) [Example 278, 1-(2-chloro-phenyl)-5-[4-(5-cyano-pyridin-3-yl)-phenyl]-3-[di-(trifluoromethyl)-hydroxy-methyl]-4,5-dihydro-1H-pyrazole], for which the Emax stood at 68 fold and the 50% effective concentration (EC50) stood at 731 nM.

The compound `COc1ncc(-c2ccc(C3CC(C(O)(C(F)(F)F)C(F)(F)F)=NN3c3ccccc3Cl)cc2)cn1` (stereo not drawn) [Example 279, 1-(2-chloro-phenyl)-5-[4-(2-methoxy-pyrimidin-5-yl)-phenyl]-3-[di-(trifluoromethyl)-hydroxy-methyl]-4,5-dihydro-1H-pyrazole] registered an Emax of 67 fold and an EC50 of 931 nM.

On to `COc1ncc(-c2ccc(C3CC(C(O)(C(F)(F)F)C(F)(F)F)=NN3c3ccccc3Cl)cc2)c(OC)n1` (stereo not drawn) [Example 280, 1-(2-chloro-phenyl)-5-[4-(2,4-dimethoxy-pyrimidin-5-yl)-phenyl]-3-[di-(trifluoromethyl)-hydroxy-methyl]-4,5-dihydro-1H-pyrazole], for which the Emax worked out at 81 fold and the EC50 is 556 nM.

With `OC(C1=NN(c2ccccc2Cl)C(c2ccc(-c3cnc(Cl)nc3)cc2)C1)(C(F)(F)F)C(F)(F)F` (stereo not drawn) [Example 281, 1-(2-chloro-phenyl)-5-[4-(2-chloro-pyrimidin-5-yl)-phenyl]-3-[di-(trifluoromethyl)-hydroxy-methyl]-4,5-dihydro-1H-pyrazole], the Emax came to 66 fold and the response was half-maximal at 1790 nM (EC50).

Consider `CN(CCO)S(=O)(=O)c1cccc(-c2ccc(C3CC(C(O)(C(F)(F)F)C(F)(F)F)=NN3c3ccccc3Cl)cc2)c1` (stereo not drawn) [Example 283, 1-(2-chloro-phenyl)-5-{3′-[(2-hydroxy-ethyl)-methyl-sulfamoyl]-biphenyl-4-yl}-3-[di-(trifluoromethyl)-hydroxy-methyl]-4,5-dihydro-1H-pyrazole], for which the Emax was found to be 51 fold and the EC50 amounted to 270 nM.

For the compound `CN(C)S(=O)(=O)c1cccc(-c2ccc(C3CC(C(O)(C(F)(F)F)C(F)(F)F)=NN3c3ccccc3Cl)cc2)c1` (stereo not drawn) [Example 284, 1-(2-chloro-phenyl)-5-(3′-dimethylsulfamoyl-biphenyl-4-yl)-3-[di-(trifluoromethyl)-hydroxy-methyl]-4,5-dihydro-1H-pyrazole], the Emax is given as 56 fold and the EC50 was 635 nM.
